Reference: doi:10.1101/212431v1, “Genetic variation across the human olfactory receptor repertoire alters odor perception” (biorxiv, 2017)

Target: T1, OR11A1 (reference haplotype MA) (Homo sapiens, UniProt Q9GZK7)
T1 construct: Hana3A cells co-transfected with RTP1S and M3-R
T1 sequence (Q9GZK7 1-315): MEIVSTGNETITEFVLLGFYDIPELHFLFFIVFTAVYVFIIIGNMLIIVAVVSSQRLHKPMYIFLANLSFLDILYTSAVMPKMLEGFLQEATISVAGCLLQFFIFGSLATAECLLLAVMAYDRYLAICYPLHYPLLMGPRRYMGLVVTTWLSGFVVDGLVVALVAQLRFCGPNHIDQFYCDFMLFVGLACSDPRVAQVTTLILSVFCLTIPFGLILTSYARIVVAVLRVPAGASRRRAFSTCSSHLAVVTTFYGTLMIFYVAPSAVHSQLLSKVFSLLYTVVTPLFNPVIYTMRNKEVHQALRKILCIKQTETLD
Test: CRE-luciferase reporter assay in Hana3A cells
Assay type: cell-based
Conditions: read-out: log(EC50 of reference MA) (converted)

`CCC1(O)C2(C)CCC(C2)C1(C)C` (stereo not shown) [2-ethylfenchol] gave an EC50 of 0.158 µM.
